ChEMBL document CHEMBL1129469, “Nonpeptide angiotensin II receptor antagonists: the next generation in antihypertensive therapy” (J Med Chem, 1996)
Numbering of substitutions follows the chain as printed.

Assays:
[1] = Oral bioavailability in rat; type: ADME, organism-based; conditions: in vivo
[2] = biological target: T1, Angiotensin II receptor (AT-1) type-1 (Rattus norvegicus, UniProt P29089+P25095); experiment: In vitro antagonistic potency against Angiotensin II receptor, type 1 in rat liver; type: functional, tissue-based
T1 sequence (P29089 whole entry): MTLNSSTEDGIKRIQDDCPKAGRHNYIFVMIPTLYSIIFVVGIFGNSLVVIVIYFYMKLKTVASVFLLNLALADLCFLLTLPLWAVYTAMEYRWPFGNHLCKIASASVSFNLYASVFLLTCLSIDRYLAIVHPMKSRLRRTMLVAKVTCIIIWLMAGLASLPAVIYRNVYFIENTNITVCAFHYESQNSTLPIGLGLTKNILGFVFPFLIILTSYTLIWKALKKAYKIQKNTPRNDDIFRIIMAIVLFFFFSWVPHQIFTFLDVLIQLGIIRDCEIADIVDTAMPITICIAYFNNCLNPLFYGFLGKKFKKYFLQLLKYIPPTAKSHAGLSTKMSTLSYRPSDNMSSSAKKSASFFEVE
T1 sequence (P25095 whole entry): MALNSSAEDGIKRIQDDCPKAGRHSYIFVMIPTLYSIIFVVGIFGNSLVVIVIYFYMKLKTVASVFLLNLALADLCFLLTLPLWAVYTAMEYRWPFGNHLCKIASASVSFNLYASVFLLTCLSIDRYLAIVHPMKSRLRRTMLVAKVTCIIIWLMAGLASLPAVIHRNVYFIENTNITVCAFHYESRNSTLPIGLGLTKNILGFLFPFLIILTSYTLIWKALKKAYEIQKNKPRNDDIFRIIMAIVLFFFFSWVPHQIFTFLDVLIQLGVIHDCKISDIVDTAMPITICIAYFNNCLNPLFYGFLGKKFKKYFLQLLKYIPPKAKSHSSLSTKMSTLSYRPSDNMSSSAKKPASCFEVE

Oryctolagus cuniculus = species on record: Oryctolagus cuniculus; experiment: Compound was tested for its antagonistic activity against angiotensin II-induced contractions in rabbit aorta; type: functional
[3] = biological target: T1, Angiotensin II receptor (AT-1) type-1; experiment: In vitro antagonistic potency against Angiotensin II receptor, type 1 in rat liver using [125I]-Sar1-Ile8-Ang II as radioligand; type: functional, tissue-based
[4] = biological target: T2, Type-2 angiotensin II receptor (Homo sapiens, UniProt P50052); experiment: Inhibition of Angiotensin II receptor, type 2
T2 sequence (P50052 whole entry): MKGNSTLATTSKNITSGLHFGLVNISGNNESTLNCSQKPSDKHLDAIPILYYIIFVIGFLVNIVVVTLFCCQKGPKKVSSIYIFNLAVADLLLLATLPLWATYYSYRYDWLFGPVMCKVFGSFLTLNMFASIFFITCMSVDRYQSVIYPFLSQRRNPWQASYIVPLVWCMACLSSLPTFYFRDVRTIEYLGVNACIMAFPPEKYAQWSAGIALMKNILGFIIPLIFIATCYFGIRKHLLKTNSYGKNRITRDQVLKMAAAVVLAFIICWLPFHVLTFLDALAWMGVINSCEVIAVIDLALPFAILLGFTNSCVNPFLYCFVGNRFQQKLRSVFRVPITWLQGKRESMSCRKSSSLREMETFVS

[5] = biological target: T3, Type-1 angiotensin II receptor (Homo sapiens, UniProt P30556); experiment: (§1) Inhibition of Angiotensin II receptor, type 1
T3 sequence (P30556 whole entry): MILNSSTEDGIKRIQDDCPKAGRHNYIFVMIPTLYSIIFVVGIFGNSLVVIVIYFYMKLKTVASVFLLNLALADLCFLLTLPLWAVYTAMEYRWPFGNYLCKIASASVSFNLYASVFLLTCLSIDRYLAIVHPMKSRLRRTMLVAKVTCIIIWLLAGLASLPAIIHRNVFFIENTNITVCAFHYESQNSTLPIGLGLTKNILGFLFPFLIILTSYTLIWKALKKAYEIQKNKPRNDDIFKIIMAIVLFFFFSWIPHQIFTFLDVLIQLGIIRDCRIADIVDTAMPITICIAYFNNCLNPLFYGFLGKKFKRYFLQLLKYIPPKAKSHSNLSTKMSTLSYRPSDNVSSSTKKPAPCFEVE

[6] = biological target: T1, Angiotensin II receptor (AT-1) type-1; experiment: In vitro antagonistic potency against Angiotensin II receptor, type 1 in rat adrenal cortex; type: functional, tissue-based
[7] = biological target: T4, Type-2 angiotensin II receptor (Rattus norvegicus, UniProt P35351); experiment: Inhibitory activity at Angiotensin II type 2 receptor.
T4 sequence (P35351 whole entry): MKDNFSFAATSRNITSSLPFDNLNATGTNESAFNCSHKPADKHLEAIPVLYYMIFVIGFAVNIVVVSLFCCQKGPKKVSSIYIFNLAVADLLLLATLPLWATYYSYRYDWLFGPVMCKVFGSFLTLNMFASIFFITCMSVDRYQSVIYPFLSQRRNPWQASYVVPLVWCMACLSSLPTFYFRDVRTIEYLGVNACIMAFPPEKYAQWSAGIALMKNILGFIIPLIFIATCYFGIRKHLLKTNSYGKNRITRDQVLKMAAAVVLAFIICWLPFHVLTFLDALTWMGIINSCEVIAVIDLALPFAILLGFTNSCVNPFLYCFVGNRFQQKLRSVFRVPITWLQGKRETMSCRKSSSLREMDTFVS

[8] = biological target: T1, Angiotensin II receptor (AT-1) type-1; experiment: Inhibitory activity against Angiotensin II receptor type 1 in rat adrenal membrane; type: cell membranes
Rattus norvegicus [9] = experiment: Intravenous effective dose required for lowering blood pressure in renal hypertensive rats (RHR); type: functional
Rattus norvegicus [10] = species on record: Rattus norvegicus; experiment: Oral effective dose required for lowering blood pressure in renal hypertensive rats (RHR); type: functional
[11] = biological target: T5, Type-1 angiotensin II receptor (Oryctolagus cuniculus, UniProt P34976); experiment: as §1
T5 sequence (P34976 whole entry): T3 sequence (P30556 whole entry) with I2M, V49A, I254V, I270V, R272H, R311K, T349S, A353V

[12] = biological target: T1, Angiotensin II receptor (AT-1) type-1; experiment: Inhibitory activity against Angiotensin II receptor, type 1 in rat aortic membranes; type: cell membranes
[13] = Oral bioavailability in dog; type: ADME, organism-based, Canis lupus familiaris; conditions: in vivo
[14] = biological target: T1, Angiotensin II receptor (AT-1) type-1; experiment: Inhibitory activity against Angiotensin II receptor, type 1; type: protein assay

Q: Which F [1] does the source give for `O=C(O)c1c(Oc2ccc(-c3ccccc3-c3nn[nH]n3)cc2)c(C2CC2)nc2ccccc12` here?
A: 11%

Q: And the Ki [2]?
A: 2.9 nM

Q: And the Kb (Oryctolagus cuniculus)?
A: 0.061 nM

Q: Which “Log Ki” value [3] does the source give for `CCc1nc(C2CC2)c(C(N)=O)n1Cc1ccc2oc(-c3ccccc3NS(=O)(=O)C(F)(F)F)c(Br)c2c1` here?
A: -9.3

Q: And the pKB (Oryctolagus cuniculus)?
A: 9

Q: What does the source list for `CCCCC(=O)Nc1ccc(Br)c(-n2nc(CC)n(Cc3ccc(-c4ccccc4S(=O)(=O)NC(=O)OC(C)(C)C)cc3F)c2=O)c1`?
A: IC50 [4]: 0.12 nM; IC50 [5]: 0.2 nM

Q: Which Ki [6] does the source give for `CCCCCCC(C(=O)O)n1cnc(NC(=O)c2cccc(O)c2C(=O)O)c1` (stereo not drawn) here?
A: 4400 nM

Q: What about the Kb (Oryctolagus cuniculus) of the same molecule?
A: 78 nM

Q: Which results are given for `CCc1nc2c(C)cc(C)nc2n1Cc1ccc(-c2ccccc2S(=O)(=O)NC(=O)C(c2ccccc2)c2ccccc2)cc1`?
A: IC50 [4]: 18 nM; IC50 [5]: 0.05 nM

Q: With `CCCCOC(=O)NS(=O)(=O)c1ccc(CCC)cc1-c1ccc(Cn2c(CC)nc3c(C)cc(C)nc32)cc1` as the molecule, how does the IC50 [4] read?
A: 6.1 nM

Q: What about the IC50 [5] of the same molecule?
A: 1.5 nM

Q: Which IC50 [7] does the source give for `CCCCc1nc2ccn(CC(=O)N(c3ccccc3)c3ccccc3)c(=O)c2n1Cc1ccc(-c2ccccc2-c2nnn[nH]2)cc1` here?
A: 300 nM

Q: Which IC50 [8] does the source give for `CCCc1nc(C(F)(F)C(F)(F)F)c(C(=O)O)n1Cc1ccc(-c2ccccc2-c2nn[nH]n2)cc1` here?
A: 3.1 nM

Q: And the ED30 (Rattus norvegicus [9])?
A: 0.02 mg/kg

Q: What about the ED30 (Rattus norvegicus [10]) of the same molecule?
A: 0.21 mg/kg

Q: For `CCCc1nc(CC)c(C=O)n1Cc1ccc(-c2ccccc2S(=O)(=O)NC(=O)c2ccccc2)cc1`, which IC50 [11] is on record?
A: 1.9 nM

Q: Which results are given for `CCCNC(=O)NS(=O)(=O)c1ccccc1-c1ccc(Cn2c(CCC)nc(SC)c2C(=O)O)cc1`?
A: IC50 [4]: 775 nM; IC50 [5]: 0.3 nM

Q: With `Cc1ccnc2c1nc(C1CC1)n2Cc1ccc(-c2ccccc2C(=O)O)cc1` as the molecule, how does the IC50 [12] read?
A: 52 nM

Q: Which bioavailability [13] does the source give for `CCc1nc2ccc(NC(=O)N(C)C(C)C)cc2c(=O)n1Cc1ccc(-c2ccccc2S(=O)(=O)NC(=O)OCCC2CC2)cc1F` here?
A: 17%

Q: And the bioavailability [1]?
A: 23%

Q: Which results are given for `CCCc1nc(CC)c(C(=O)OCc2ccccc2C(=O)c2ccccc2)n1Cc1ccc(-c2ccccc2S(=O)(=O)NC(=O)OCCC(C)C)cc1F`?
A: IC50 [4]: 0.69 nM; IC50 [5]: 570 nM; ED30 (Rattus norvegicus [9]): 0.05 mg/kg; ED30 (Rattus norvegicus [10]): 0.9 mg/kg

Q: For `CCCCc1nc(Cl)c(C(=O)O)n1Cc1ccc(-c2ccccc2-c2nn[nH]n2)cc1` [CARBOXYLIC ACID METABOLITE], which bioavailability [1] is on record?
A: 12%

Q: What about the ED30 (Rattus norvegicus [9]) of the same molecule?
A: 0.04 mg/kg

Q: And the ED30 (Rattus norvegicus [10])?
A: 0.66 mg/kg

Q: For `CCCCc1nc2ccc(C(C)(C)OC)cc2c(=O)n1Cc1ccc(-c2ccccc2-c2nn[nH]n2)cc1` [CL-329167], which IC50 ([14]; read-out: IC50) is on record?
A: 6 nM

Q: Which IC50 [7] does the source give for `CCCCc1nn(-c2ccccc2C(F)(F)F)c(=O)n1Cc1ccc(-c2ccccc2S(=O)(=O)NC(=O)c2ccccc2)cc1` [L-159913] here?
A: 450 nM

Q: Which IC50 [14] does the source give for `COc1ccc2c(c1OCc1ccccc1)C[C@@H](C(=O)O)N(C(=O)C(c1ccccc1)c1ccccc1)C2` [OLODANRIGAN] here?
A: > 100000 nM

Q: With `CCCc1nc2c(n1Cc1ccc(-c3ccccc3-c3nnn[nH]3)cc1)C(=O)CCCC2` [PRATOSARTAN] as the molecule, how does the IC50 [12] read?
A: 0.8 nM

Q: Which ED60 (Rattus norvegicus [10]) does the source give for `Cc1nc(C)c2c(n1)N(Cc1ccc(-c3ccccc3-c3nnn[nH]3)cc1)C(=O)CC2` [TASOSARTAN] here?
A: 0.58 mg/kg

Q: With `CCCCc1nc(Cl)c(C(=O)O)n1Cc1ccc2oc(-c3ccccc3-c3nnn[nH]3)c(Br)c2c1` [ZOLASARTAN] as the molecule, how does the bioavailability [1] read?
A: 3%

Q: And the “Log Ki” value [3]?
A: -9

Q: What about the pKB (Oryctolagus cuniculus) of the same molecule?
A: 9.8
